Source: US20030180355A1, “Combination therapy for hypertension” (priority 2001, published 2003)

Key:
[1] = system: uninephrectomized anesthetized rats; experiment: Model of acute angiotensin-mediated renal hypertension in anesthetized rats; type: in vivo, Sprague-Dawley rats
Description: Male Sprague-Dawley rats, weighing 250-300 g, were anaesthetized with pentobarbital sodium (35 mg/kg, i.p.) and placed on a thermic blanket. The temperature was maintained at 37° C. with a thermoregulator via a rectal probe. The animals were tracheotomized to facilitate spontaneous breathing. A polyethylene catheter was placed in the left jugular vein to allow for infusion of pentobarbital sodium to maintain anesthesia. The left femoral vein and artery were cannulated with polyethylene catheters to allow drugs administration and to monitor blood pressure, respectively.
The animals then underwent a left nephrectomy by excising the left kidney via a flank incision. The right kidney and renal vein, artery and ureter then were exposed via a right retroperitoneal incision, under a dissecting microscope. Silk threads were placed around both vessels and ureter. The cavity was then covered with Vaseline oil. See Recordati, et al. 2000, J. Hypertension, 18:1277-1287.
ECG (lead II) was recorded by means of subcutaneous electrodes. After 30-60 minutes of basal recordings of arterial blood pressure and heart rate the threads around the renal vessels and ureter were tied close to the renal hilum to induce complete renal ischemia of the right kidney. After 2 hours of ischemia (designed as “120” in Tables 1-4), the threads were removed to allow renal reperfusion and urine output. The reopening of the renal hilum and restoration of renal circulation, induced an increase in blood pressure that peaked 5-10 minutes and lasted about 60 minutes. Drugs (vehicle, enalapril (100 μg/kg), lercanidipine (10 μg/kg), or both lercanidipine (10 μg/kg) and enalapril (100 μg/kg)) were administered intravenously at 5 minutes after reperfusion began (defined as 125 in Tables 4-7).
Statistical analysis was performed during the reperfusion time (time 125-180 minutes). To evaluate the statistical differences among the treatment groups, data were analyzed using a three-way ANOVA (analysis of variance) with repeated measures on factor time and pre-planned multiple comparisons. Statistical analysis was performed by means of general linear model procedure (GLM) with SAS software version 6.12.

[2] = system: isolated rat aorta; details: in vitro; even after the drug has been removed for 6 hours; cited from earlier work
[3] = enalapril 100 μg/kg i.v., time 0 min, basal
[4] = enalapril 100 μg/kg i.v., time 120 min, end of ischemia, before drug
[5] = enalapril 100 μg/kg i.v., time 125 min, reperfusion, before drug
[6] = enalapril 100 μg/kg i.v., time 130 min, drug given at 125 min
[7] = enalapril 100 μg/kg i.v., time 135 min, drug given at 125 min
[8] = enalapril 100 μg/kg i.v., time 150 min, drug given at 125 min
[9] = enalapril 100 μg/kg i.v., time 165 min, drug given at 125 min
[10] = enalapril 100 μg/kg i.v., time 180 min, drug given at 125 min
[11] = lercanidipine 10 μg/kg i.v., time 0 min, basal
[12] = lercanidipine 10 μg/kg i.v., time 120 min, end of ischemia, before drug
[13] = lercanidipine 10 μg/kg i.v., time 125 min, reperfusion, before drug
[14] = lercanidipine 10 μg/kg i.v., time 130 min, drug given at 125 min
[15] = lercanidipine 10 μg/kg i.v., time 135 min, drug given at 125 min
[16] = lercanidipine 10 μg/kg i.v., time 150 min, drug given at 125 min
[17] = lercanidipine 10 μg/kg i.v., time 165 min, drug given at 125 min
[18] = lercanidipine 10 μg/kg i.v., time 180 min, drug given at 125 min

SMILES: CCOC(=O)[C@H](CCc1ccccc1)N[C@@H](C)C(=O)N1CCC[C@H]1C(=O)O [enalapril, (S)-1-[N-1-(ethoxycarbonyl)-3-phenylpropyl]-L-alanyl-L-proline]
- DBP (diastolic blood pressure) [1, 3]: 69.6 ± 2.1 mmHg
- MBP (mean blood pressure) [1, 3]: 83.4 ± 2.1 mmHg
- SBP (systolic blood pressure) [1, 3]: 111.0 ± 2.6 mmHg
- DBP (diastolic blood pressure) [1, 4]: 65.1 ± 3.5 mmHg
- MBP (mean blood pressure) [1, 4]: 80.0 ± 3.9 mmHg
- SBP (systolic blood pressure) [1, 4]: 109.9 ± 5.1 mmHg
- DBP (diastolic blood pressure) [1, 5]: 124.9 ± 4.3 mmHg
- MBP (mean blood pressure) [1, 5]: 142.2 ± 5.4 mmHg
- SBP (systolic blood pressure) [1, 5]: 176.8 ± 8.1 mmHg
- DBP (diastolic blood pressure) [1, 6]: 109.9 ± 4.1 a mmHg
- MBP (mean blood pressure) [1, 6]: 122.0 ± 4.1 b mmHg
- SBP (systolic blood pressure) [1, 6]: 146.1 ± 4.5 c mmHg
- DBP (diastolic blood pressure) [1, 7]: 107.1 ± 4.5 a mmHg
- MBP (mean blood pressure) [1, 7]: 119.4 ± 4.2 b mmHg
- SBP (systolic blood pressure) [1, 7]: 143.9 ± 4.1 b mmHg
- DBP (diastolic blood pressure) [1, 8]: 95.9 ± 7.9 b mmHg
- MBP (mean blood pressure) [1, 8]: 109.0 ± 7.4 c mmHg
- SBP (systolic blood pressure) [1, 8]: 135.4 ± 6.6 b mmHg
- DBP (diastolic blood pressure) [1, 9]: 86.5 ± 8.5 b mmHg
- MBP (mean blood pressure) [1, 9]: 100.5 ± 8.0 b mmHg
- SBP (systolic blood pressure) [1, 9]: 128.5 ± 7.6 a mmHg
- DBP (diastolic blood pressure) [1, 10]: 78.9 ± 7.6 a mmHg
- MBP (mean blood pressure) [1, 10]: 93.7 ± 7.2 a mmHg
- SBP (systolic blood pressure) [1, 10]: 123.4 ± 6.9 mmHg
- p value on mean blood pressure vs lercanidipine ([1]; three-way ANOVA, reperfusion time 125-180 min, lercanidipine 10 μg/kg, enalapril 100 μg/kg i.v.): p < 0.001

SMILES: COC(=O)C1=C(C)NC(C)=C(C(=O)OC(C)(C)CN(C)CCC(c2ccccc2)c2ccccc2)C1c1cccc([N+](=O)[O-])c1 (centres unmarked) [lercanidipine, methyl 1,1,N-trimethyl-N-(3,3-diphenylpropyl)-2-aminoethyl 1,4-dihydro-2,6-dimethyl-4-(3-nitrophenyl)pyridine-3,5-dicarboxylate]
- DBP (diastolic blood pressure) [1, 11]: 69.8 ± 2.5 mmHg
- MBP (mean blood pressure) [1, 11]: 83.3 ± 2.8 mmHg
- SBP (systolic blood pressure) [1, 11]: 110.4 ± 3.6 mmHg
- DBP (diastolic blood pressure) [1, 12]: 70.6 ± 5.4 mmHg
- MBP (mean blood pressure) [1, 12]: 85.3 ± 5.7 mmHg
- SBP (systolic blood pressure) [1, 12]: 114.5 ± 6.5 mmHg
- DBP (diastolic blood pressure) [1, 13]: 119.3 ± 5.2 mmHg
- MBP (mean blood pressure) [1, 13]: 135.4 ± 6.4 mmHg
- SBP (systolic blood pressure) [1, 13]: 167.6 ± 8.9 mmHg
- DBP (diastolic blood pressure) [1, 14]: 97.1 ± 3.1 c mmHg
- MBP (mean blood pressure) [1, 14]: 111.5 ± 3.2 c mmHg
- SBP (systolic blood pressure) [1, 14]: 140.4 ± 3.8 b mmHg
- DBP (diastolic blood pressure) [1, 15]: 93.1 ± 4.0 c mmHg
- MBP (mean blood pressure) [1, 15]: 108.9 ± 3.7 c mmHg
- SBP (systolic blood pressure) [1, 15]: 140.5 ± 3.7 a mmHg
- DBP (diastolic blood pressure) [1, 16]: 89.5 ± 4.3 b mmHg
- MBP (mean blood pressure) [1, 16]: 106.1 ± 3.9 b mmHg
- SBP (systolic blood pressure) [1, 16]: 139.4 ± 3.7 mmHg
- DBP (diastolic blood pressure) [1, 17]: 83.5 ± 4.6 a mmHg
- MBP (mean blood pressure) [1, 17]: 99.7 ± 4.7 mmHg
- SBP (systolic blood pressure) [1, 17]: 132.0 ± 5.3 mmHg
- DBP (diastolic blood pressure) [1, 18]: 78.8 ± 4.0 mmHg
- MBP (mean blood pressure) [1, 18]: 95.2 ± 4.1 mmHg
- SBP (systolic blood pressure) [1, 18]: 128.1 ± 4.7 mmHg
- isolated rat aorta response to high K+ [2]: attenuated
